Experiments:
[1] = system: Karpas-422 cells; test: RNA-seq gene expression analysis; type: cell-based, human; conditions: 24 h
Description: RNA samples obtained from three independent treatments were subjected to RiboZero stranded sequencing using the Illumina Hiseq2000 sequencer. RNA-seq data from ACY-957-treated samples was compared to the publically available RNA seq data set from Karpas-422 cells following GSK126 treatment of Karpas-422 cells. […] Genes with adjusted p-value<0.05 and absolute log 2 fold change>0.585 were used in this analysis.
Total RNA was isolated from Karpas cells that were treated with DMSO or 2 μM ACY-957 for 24 h using the Versagene RNA isolation kit (5 Prime). The treatments were done in triplicate and sequenced using the Illumina Hiseq2000 sequencer. Illumina TruSeq Stranded sequencing following RiboZero treatment was performed.
Three independent DMSO or ACY-957 treatments of Karpas-422 cells for 24 h were performed for total RNA isolation, which was then subjected to RNA-seq involving next-generation sequencing and bioinformatics analysis.

[2] = system: Hdac1,2; test: in vitro enzyme assays, IC50 determination (FIG. 17A); type: biochemical
Description: (A). For IC50 determination, recombinant HDAC enzymes were treated with HDAC1,2 or HDAC3 inhibitors in in vitro HDAC assays. (B). Western blots for H3K23ac using extracts from Pre-B-ALL SupB15 cells treated with increasing dose of HDAC1,2 inhibitor (ACY1035). (C). Hdac1^FI/FI, 2^FI/FI cells were infected with Ad-Cre virus to delete HDAC1 and HDAC2 (HDAC1,2 null) or uninfected (WT). (D). Hdac3^FI/FI cells were either uninfected (WT) or infected with Ad-Cre virus to delete Hdac3. HDAC3-null cells were treated with DMSO or the HDAC1,2 selective inhibitor.
We have determined 2 μM (FIG. 17B) as the minimum dose for the ACY compounds, respectively, that when added to cells increased H3K23ac (a mark targeted by Hdac1,2 but not Hdac3).

[3] = target: T1, HDAC1 (Homo sapiens, UniProt Q13547); test: in vitro HDAC enzyme assay with recombinant enzyme; conditions: from biochemical IC50 values, recombinant enzymes
T1 construct: purchased BPS Biosciences
Source text: (§1) Among class I HDACs, Hdac1,2 share a 50% sequence homology with Hdac3. Therefore, we first determined the selectivity of ACY-957 towards HDAC1 and HDAC2 in in vitro enzyme assays using recombinant enzymes.

[4] = target: T2, HDAC2 (Homo sapiens, UniProt Q92769); test: in vitro HDAC enzyme assay with recombinant enzyme; conditions: from biochemical IC50 values, recombinant enzymes
T2 construct: purchased BPS Biosciences
Source text: as §1

[5] = system: Karpas-422 cells; test: ChIP of H3K27ac and H3K27me3 at BMF and TP63 promoters; type: cell-based, human; conditions: 2 μM, vs DMSO
Source text: RNA samples obtained from three independent treatments were subjected to RiboZero stranded sequencing using the Illumina Hiseq2000 sequencer. RNA-seq data from ACY-957-treated samples was compared to the publically available RNA seq data set from Karpas-422 cells following GSK126 treatment of Karpas-422 cells. Venn diagrams were made using the R package VennDiagram. Genes with adjusted p-value<0.05 and absolute log 2 fold change>0.585 were used in this analysis. (B): Pathway analysis of the 71 commonly up regulated genes was performed. Screen shots of the pathways that were misregulated in both ACY-957-treated Karpas-422 cells and in Karpas-422 cells following GSK-126 treatment. […] (C): Base read depth, scaled per million mapped reads, for BMF and Tp63 genes in DMSO- or ACY-957-treated Karpas-422 cells. […] Fold-increase as determined by real-time PCR analysis in H3K27ac relative to total H3 occupancy was calculated for both ACY-957-treated and DMSO-treated samples and the relative fold-enrichment of H3K27ac and […] in ACY-957-treated samples was calculated following normalization to DMSO-treated samples. The data represented an average fold-change calculated from three independent experiments+/−standard error. *p=0.003 and **p=0.004 (E): ChIP analysis of HDAC1 and HDAC2 at the promoters of BMF and Tp63 genes was performed in Karpas-422 cells. […]

T1 sequence (Q13547 whole entry): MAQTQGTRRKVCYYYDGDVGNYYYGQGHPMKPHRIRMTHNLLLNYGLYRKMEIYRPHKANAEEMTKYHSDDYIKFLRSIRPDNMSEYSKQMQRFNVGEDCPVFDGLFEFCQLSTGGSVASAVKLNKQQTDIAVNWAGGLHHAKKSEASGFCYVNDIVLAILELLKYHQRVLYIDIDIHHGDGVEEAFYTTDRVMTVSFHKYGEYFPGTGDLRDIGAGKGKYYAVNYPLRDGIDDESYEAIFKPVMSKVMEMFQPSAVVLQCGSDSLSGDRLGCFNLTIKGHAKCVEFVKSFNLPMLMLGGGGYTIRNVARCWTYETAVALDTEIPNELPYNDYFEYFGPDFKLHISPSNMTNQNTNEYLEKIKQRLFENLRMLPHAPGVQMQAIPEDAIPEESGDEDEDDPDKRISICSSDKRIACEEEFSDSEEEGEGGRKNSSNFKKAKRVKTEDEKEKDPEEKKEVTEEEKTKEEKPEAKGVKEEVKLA
T2 sequence (Q92769 whole entry): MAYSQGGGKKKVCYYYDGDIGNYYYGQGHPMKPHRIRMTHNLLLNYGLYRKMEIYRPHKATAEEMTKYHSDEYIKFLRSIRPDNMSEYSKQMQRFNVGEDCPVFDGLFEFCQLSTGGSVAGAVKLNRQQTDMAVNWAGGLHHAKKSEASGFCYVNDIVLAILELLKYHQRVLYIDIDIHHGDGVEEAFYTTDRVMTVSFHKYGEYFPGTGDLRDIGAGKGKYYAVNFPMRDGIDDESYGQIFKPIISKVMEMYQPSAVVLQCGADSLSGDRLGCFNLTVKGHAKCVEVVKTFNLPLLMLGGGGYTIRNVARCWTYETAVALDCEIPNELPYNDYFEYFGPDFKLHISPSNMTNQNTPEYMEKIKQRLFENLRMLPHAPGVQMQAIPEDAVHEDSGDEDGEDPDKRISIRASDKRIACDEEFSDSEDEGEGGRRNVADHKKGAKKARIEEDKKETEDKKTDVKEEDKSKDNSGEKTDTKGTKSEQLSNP

Nc1ccc(-c2cccs2)cc1NC(=O)c1ccc2nc(N3CCNCC3)ccc2c1 [ACY-957, N-(2-amino-5-(thiophen-2-yl)phenyl)-2-(piperazin-1-yl)quinoline-6-carboxamide] was tested, and the “number of genes up regulated” value ([1]; 2 μM, vs DMSO) was 492 genes, the “BLIMP1 expression up regulation” value ([1]; DESeq analysis of RNA-seq) was 1.7 fold and the “inhibition of Hdac1,2 activities compared to Hdac3 (IC50 values)” value [2] was “very selectively”. For the same compound, the “selectivity for HDAC1 when compared to HDAC3” value [3] was 185 fold, the “selectivity for HDAC2 when compared to HDAC3” value [4] was 72 fold and the “H3K27ac at promoter regions of TP63 and BMF” value [5] was “increase in H3K27ac levels at the promoter regions of both TP63 and BMF genes”. The “H3K27me3 at TP63 and BMF promoters” value [5] was “concomitant decrease in H3K27me3 was not observed”.
